One series addresses T1, Ku 70/80 (Homo sapiens, UniProt P12956+P13010).
T1 construct: made in house; host or cells: baculovirus-infected Sf9 cells
Nature of the series: EMSA Ku–DNA binding inhibition. The following applies: 32P-labeled 30-bp duplex DNA, purified Ku 70/80, mean and SD of triplicate. The protocol:
(§1) The inhibitory activity of Ku-DBis on Ku-DNA binding was evaluated in vitro using Electrophoretic mobility shift assays (EMSA) with a [^32P]-labeled 30-bp duplex DNA and purified Ku 70/80. Kinase assays were performed to measure the DNA-dependent transfer of [^32P] from γ-[^32P] ATP to a synthetic p53-based peptide substrate, both as previously described. Both EMSA and DNA-PK inhibitor titration assays were performed in triplicate. Data were fit to standard binding curves using GraphPad Prism to determine IC50 values.
A general note: In EMSA bound probe runs differently from free probe, usually more slowly.

For the next series, the target named is T2, DNA-PK (Homo sapiens, UniProt P12956+P13010).
T2 construct: made in house; Ku 70/80 from baculovirus-infected Sf9 cells
Description: DNA-PK kinase assay (phosphate transfer to p53 peptide). Format: biochemical. Conditions: for IC50: DNA-dependent phosphate transfer to synthetic p53 peptide, purified DNA-PK, mean and SD of triplicate. How it is done:
as §1

In the next series the test system is H460 NSCLC cells. Nature of the series: Cellular uptake by HPLC. The class given is in vitro ADME, Human. The following applies: H460, 10 µM, media with 10% FBS. How it is done: Cellular uptake was evaluated in two NSCLC cell lines, H460 and A549. Cells were seeded into 6-well plates at a density of 1 × 10^6 cells per well and cultured as monolayers at 37 °C and 5% CO2 for 18–24 h. Ku-DBis were added to the media at a concentration of 10 µM and incubation continued for the times indicated. Media were removed, cells were washed 3 times with PBS, 1 mL of methanol was added to each well, and cells were agitated overnight at 4 °C. The methanol was collected, and wells were washed with an additional 1 mL of methanol that was then pooled with the original. The methanol extracts were then dried under vacuum, resuspended in methanol, and analyzed by HPLC using a 250 × 4.6 and 5 μm C-18 reverse phase column with 1% TFA mobile phase in acetonitrile (ACN) gradient elution. Absorption was monitored at 425 nm, HPLC peaks were quantified using a standard curve, and picomoles of compound per million cells was calculated.

For a further series, the system named is MDA-MB-436. Nature of the series: Bleomycin-sensitization activity, CCK-8. Format: cell-based, Human. The following applies: BRCA1 mutant MDA-MB-436. The protocol:
(§2) Cell metabolism/viability was assessed using a mitochondrial metabolism assay (CCK-8) kit (Cell Counting Kit-8, Cat: CK04, Dojindo Laboratories, Rockville, MD, USA) as previously described. Briefly, cells were seeded at a density of 3 × 10^3 cells per well in 96-well plates and allowed to adhere and stretch for 18–24 h prior to treatment. Cells were pre-treated with Ku-DBi for 24 h before bleomycin treatments. Subsequently, cells were incubated for an additional 48 h at 37 °C after which CCK-8 assay was performed. The absorbance of the formed formazan product in each well was measured at 450 nm and compared to vehicle-treated controls to determine percent cell viability. The results represent the average and SEM of triplicate determinations.

The subject of a further series is MDA-MB-468. Description: Bleomycin-sensitization activity, CCK-8. Format: cell-based, Human. The following applies: BRCA1 wild-type MDA-MB-468. The protocol:
as §2

Another series has as its system H460. Description: CCK-8 cell viability, single agent. Format: cell-based, Human. The protocol:
as §2

In another series the test system is MDA-436. Nature of the series: CCK-8 cell viability, single agent. The class given is cell-based, Human. How it is done:
as §2

A further series concerns H23. Nature of the series: CCK-8 cell viability, single agent. The class given is cell-based, Human. The protocol: as §2
In the next series the test system is A549. Description: CCK-8 cell viability, single agent. Format: cell-based, Human. How it is done:
as §2

The test system of another series is MDA-468. Description: CCK-8 cell viability, single agent. Format: cell-based, Human. How it is done: as §2
A further series deals with H1299. Nature of the series: CCK-8 cell viability, single agent. The class given is cell-based, Human. How it is done: as §2

Each structure is given as a SMILES string. Several values for one entry are separate records, joined by “and”; a condition that tells them apart may be missing. Identical values can stand only once.

T2 sequence (P12956 whole entry): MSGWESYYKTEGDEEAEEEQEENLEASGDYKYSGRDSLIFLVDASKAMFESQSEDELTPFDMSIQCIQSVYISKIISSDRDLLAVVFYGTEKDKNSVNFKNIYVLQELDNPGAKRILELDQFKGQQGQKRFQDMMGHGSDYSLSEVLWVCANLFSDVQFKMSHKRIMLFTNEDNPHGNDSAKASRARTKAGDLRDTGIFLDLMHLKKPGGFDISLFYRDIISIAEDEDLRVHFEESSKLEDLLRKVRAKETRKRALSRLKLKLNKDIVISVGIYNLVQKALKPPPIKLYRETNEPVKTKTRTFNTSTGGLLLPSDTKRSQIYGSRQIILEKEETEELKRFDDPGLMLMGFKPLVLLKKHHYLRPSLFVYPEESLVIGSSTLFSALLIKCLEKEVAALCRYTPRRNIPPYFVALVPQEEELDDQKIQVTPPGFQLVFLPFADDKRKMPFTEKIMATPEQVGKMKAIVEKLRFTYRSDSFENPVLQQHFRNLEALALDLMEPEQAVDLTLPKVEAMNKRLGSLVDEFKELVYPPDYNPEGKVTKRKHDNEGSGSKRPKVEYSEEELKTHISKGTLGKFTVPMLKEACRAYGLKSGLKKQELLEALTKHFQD
T2 sequence (P13010 whole entry): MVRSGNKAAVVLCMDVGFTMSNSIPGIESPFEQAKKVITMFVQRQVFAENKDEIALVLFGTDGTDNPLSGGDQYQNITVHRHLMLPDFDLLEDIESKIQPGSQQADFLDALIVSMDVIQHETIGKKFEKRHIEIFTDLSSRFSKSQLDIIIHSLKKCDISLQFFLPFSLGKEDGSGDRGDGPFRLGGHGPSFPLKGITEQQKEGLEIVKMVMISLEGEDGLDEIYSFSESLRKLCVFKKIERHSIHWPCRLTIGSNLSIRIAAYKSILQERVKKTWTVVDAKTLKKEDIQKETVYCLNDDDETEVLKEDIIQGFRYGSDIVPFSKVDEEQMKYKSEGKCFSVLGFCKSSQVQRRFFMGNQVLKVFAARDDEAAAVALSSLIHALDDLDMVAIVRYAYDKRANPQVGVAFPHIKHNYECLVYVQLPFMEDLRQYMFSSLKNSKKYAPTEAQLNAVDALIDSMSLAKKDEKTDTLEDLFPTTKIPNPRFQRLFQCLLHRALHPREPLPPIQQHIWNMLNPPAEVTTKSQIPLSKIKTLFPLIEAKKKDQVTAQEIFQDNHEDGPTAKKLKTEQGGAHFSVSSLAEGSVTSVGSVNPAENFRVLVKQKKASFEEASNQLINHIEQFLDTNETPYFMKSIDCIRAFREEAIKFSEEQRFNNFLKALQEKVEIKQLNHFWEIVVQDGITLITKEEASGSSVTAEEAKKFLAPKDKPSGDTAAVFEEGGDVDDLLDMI
T1 sequence (P12956 whole entry): as the sequence (P12956 whole entry) above
T1 sequence (P13010 whole entry): as the sequence (P13010 whole entry) above

A word on the IC50: it is the concentration that inhibits the measured activity by half. Higher therefore signals a need for much substance. Turning to `O=C(O)c1cccc(N2C(=O)/C(=C\c3ccc(-c4ccc(F)c(C(=O)Nc5cccc(OC(F)(F)F)c5)c4)o3)c3ccccc32)c1` [GL-3618], the IC50 at Ku 70/80 came to 3.36 ± 0.89 µM; against DNA-PK, 1.72 ± 0.15 µM. Moreover, the “Cellular uptake, fold more efficient than methoxy-derivatives 3395 and 3649” value in the series on H460 NSCLC cells was ~ 3 fold.
As to `COc1cccc(NC(=O)c2cc(-c3ccc(/C=C4\C(=O)N(c5cccc(C(=O)O)c5)c5ccccc54)o3)ccc2OC)c1` [GL-3395], at Ku 70/80, the half-inhibitory concentration (IC50) was 2.4 µM and 2.41 µM. For the same compound, on DNA-PK, the “DNA-PK inhibitory activity, fold more active than fluoro-modified counterparts (3618 and 3649)” value is reported as ~ 2.5 fold; the IC50 was 0.77 ± 0.24 µM.
As for `COc1cccc(NC(=O)c2cc(-c3ccc(/C=C4\C(=O)N(c5cccc(C(=O)O)c5)c5ccccc54)o3)ccc2F)c1` [GL-3649], the IC50 was 3.55 ± 0.4 µM at Ku 70/80 and 1.74 ± 0.61 µM against DNA-PK.
For the compound `O=c1cc(N2CCOCC2)oc2c(-c3cccc4c3sc3ccccc34)cccc12` [NU-7441, reference compound], the “Change in sensitivity to bleomycin” value in the series with MDA-MB-436 is given as “decrease in sensitivity to bleomycin”; with MDA-MB-468, “increase in sensitivity”. Also, the “Cell Viability at 25 µM” value with H460 (25 µM) is recorded as 8.3 ± 0.1 %ctrl; with MDA-436 (25 µM), 17.8 ± 1.3 %ctrl; with H23 (25 µM), 4.8 ± 0.5 %ctrl; in the series on A549 (25 µM), 13.6 ± 1.4 %ctrl; in the series on MDA-468 (25 µM), 4.1 ± 0.9 %ctrl; with H1299 (25 µM), 17.8 ± 5.4 %ctrl. Further, the IC50 in the series with H460 (H460, CCK-8, 72 h, mean ± SD) was 4.8 ± 1 µM; in the series on MDA-436 (MDA-436, CCK-8, 72 h, mean ± SD) it was 8.1 ± 0.9 µM; in the series with H23 (H23, CCK-8, 72 h, mean ± SD), 2.2 ± 0.1 µM; in the series with A549 (A549, CCK-8, 72 h, mean ± SD), ~4.5 µM; in the series with MDA-468 (MDA-468, CCK-8, 72 h, mean ± SD), 5.2 ± 0.4 µM; with H1299 (H1299, CCK-8, 72 h, mean ± SD) it was 4 ± 0.9 µM. Further, the “Fold more sensitive than the other NSCLC lines” value in the series on H23 (ATM-null H23 cells) is reported as ~ 2 fold.

For the origin of these results see publication PMC11475570, “Impact of Optimized Ku–DNA Binding Inhibitors on the Cellular and In Vivo DNA Damage Response” (Cancers, 2024).
